Where two headings read alike, the source gives them in different places.
Target: T1, mTOR (Homo sapiens, UniProt P42345)
T1 construct: FLAG; made in house
Assay: In Vitro mTOR Kinase Assay (Echo), Test (a)(ii)
Format: biochemical
How it was run: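 FLAG-tagged truncated mTOR (residues 1362-2549), expressed in HEK293 and purified via the FLAG tag, phosphorylated a biotinylated peptide over 2 hours at room temperature. EDTA stopped the reaction. Phospho-T389 was detected overnight by AlphaScreen using the p70 S6K T389 antibody with Protein A/streptavidin beads; IC50 reported.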

[1] = table of enzyme assay Test (a)(ii), read-out: Test (a)(ii) IC50
[2] = read-out: mTOR Kinase Assay (Echo)

T1 sequence (P42345 1362-2549): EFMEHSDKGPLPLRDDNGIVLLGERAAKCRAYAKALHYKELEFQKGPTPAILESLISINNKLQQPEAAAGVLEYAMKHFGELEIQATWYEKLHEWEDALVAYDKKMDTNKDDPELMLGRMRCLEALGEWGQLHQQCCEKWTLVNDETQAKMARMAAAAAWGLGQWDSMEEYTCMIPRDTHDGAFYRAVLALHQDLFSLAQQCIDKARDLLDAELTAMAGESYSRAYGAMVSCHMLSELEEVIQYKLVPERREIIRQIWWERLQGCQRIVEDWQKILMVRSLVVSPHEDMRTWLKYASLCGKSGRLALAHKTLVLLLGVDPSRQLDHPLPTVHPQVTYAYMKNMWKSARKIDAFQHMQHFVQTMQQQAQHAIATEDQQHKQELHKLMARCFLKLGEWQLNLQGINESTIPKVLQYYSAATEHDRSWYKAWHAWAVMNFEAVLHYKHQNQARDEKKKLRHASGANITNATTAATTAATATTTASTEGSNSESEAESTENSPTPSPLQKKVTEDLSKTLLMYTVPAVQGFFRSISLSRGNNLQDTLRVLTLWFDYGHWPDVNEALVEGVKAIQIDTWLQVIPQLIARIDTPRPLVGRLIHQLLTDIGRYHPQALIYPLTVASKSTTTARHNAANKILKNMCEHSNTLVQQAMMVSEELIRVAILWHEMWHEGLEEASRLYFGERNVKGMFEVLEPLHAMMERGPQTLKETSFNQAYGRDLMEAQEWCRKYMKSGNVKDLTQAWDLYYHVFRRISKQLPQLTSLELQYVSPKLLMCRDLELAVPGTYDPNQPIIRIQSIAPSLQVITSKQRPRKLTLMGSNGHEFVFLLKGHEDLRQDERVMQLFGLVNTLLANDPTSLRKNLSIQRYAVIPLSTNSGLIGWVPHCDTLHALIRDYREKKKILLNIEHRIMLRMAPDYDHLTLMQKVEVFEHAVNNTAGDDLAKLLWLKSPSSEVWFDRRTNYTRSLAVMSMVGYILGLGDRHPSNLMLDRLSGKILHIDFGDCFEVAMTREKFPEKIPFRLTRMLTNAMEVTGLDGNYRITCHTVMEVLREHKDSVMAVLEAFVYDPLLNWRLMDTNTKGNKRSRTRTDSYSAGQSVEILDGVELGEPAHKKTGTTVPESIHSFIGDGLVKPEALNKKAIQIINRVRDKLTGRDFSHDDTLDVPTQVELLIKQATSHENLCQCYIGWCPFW

SMILES | IC50 [1] | IC50 [2]
C[C@H]1COCCN1c1cc(C2(S(=O)(=O)CCCO)CC2)nc(-c2ccc(NC(=O)NCCN(C)C)cc2)n1 [Example 31l, 3-(2-dimethylaminoethyl)-1-[4-[4-[1-(3-hydroxypropylsulfonyl)cyclopropyl]-6-[(3S)-3-methylmorpholin-4-yl]pyrimidin-2-yl]phenyl]urea] | 214 nM | –
CCNC(=O)Nc1ccc(-c2nc(N3CCOC[C@@H]3C)cc(C3(S(C)(=O)=O)CCC3)n2)cc1 [Example 5a, 3-ethyl-1-[4-[4-[(3S)-3-methylmorpholin-4-yl]-6-(1-methylsulfonylcyclobutyl)pyrimidin-2-yl]phenyl]urea] | – | 0.289 nM
CNC(=O)Nc1ccc(-c2nc(N3CCOC[C@@H]3C)cc(C3(S(=O)(=O)c4ccccn4)CCC3)n2)cc1 [Example 36ag, 3-methyl-1-[4-[4-[(3S)-3-methylmorpholin-4-yl]-6-(1-pyridin-2-ylsulfonylcyclobutyl)pyrimidin-2-yl]phenyl]urea] | 1.3 nM | –
CNC(=O)Nc1ccc(-c2nc(N3CCOCC3)cc(C3(S(C)(=O)=O)CCC3)n2)cc1 [Example 12q, 3-methyl-1-[4-[4-(1-methylsulfonylcyclobutyl)-6-morpholin-4-ylpyrimidin-2-yl]phenyl]urea] | – | 1.62 nM
C[C@H]1COCCN1c1cc(C2(S(=O)(=O)C(C)(C)C)CC2)nc(-c2ccc(NC(=O)NC3CC3)cc2)n1 [Example 18, 1-[4-[4-(1-tert-Butylsulfonylcyclopropyl)-6-[(3S)-3-methylmorpholin-4-yl]pyrimidin-2-yl]phenyl]-3-cyclopropylurea] | 1.35 nM | –
C[C@H]1COCCN1c1cc(C2(S(=O)(=O)CCO)CC2)nc(-c2ccc(NC(=O)NC3CCC3)cc2)n1 [Example 16a, 3-cyclobutyl-1-[4-[4-[1-(2-hydroxyethylsulfonyl)cyclopropyl]-6-[(3S)-3-methylmorpholin-4-yl]pyrimidin-2-yl]phenyl]urea] | 10.1 nM | –
CCS(=O)(=O)C1(c2cc(N3CCOC[C@@H]3C)nc(-c3ccc(NC(=O)NCCC#N)cc3)n2)CC1 [Example 36u, 3-(2-cyanoethyl)-1-[4-[4-(1-ethylsulfonylcyclopropyl)-6-[(3S)-3-methylmorpholin-4-yl]pyrimidin-2-yl]phenyl]urea] | 9.22 nM | –

The remaining lines, values ahead:

IC50 [1] | IC50 [2] | SMILES
15.3 nM | – | CNC(=O)Nc1ccc(-c2nc(N3CCOC[C@@H]3C)cc(C3(S(=O)(=O)c4sc(C)nc4C)CC3)n2)cc1 [Example 78a, 1-[4-[4-[1-[(2,4-dimethyl-1,3-thiazol-5-yl)sulfonyl]cyclopropyl]-6-[(3S)-3-methylmorpholin-4-yl]pyrimidin-2-yl]phenyl]-3-methylurea]
5.46 nM | – | C[C@@H](CO)NC(=S)Nc1ccc(-c2nc(N3CCOC[C@@H]3C)cc(C3(S(C)(=O)=O)CCC3)n2)cc1 [Example 62b, 3-[(2S)-1-hydroxypropan-2-yl]-1-[4-[4-[(3S)-3-methylmorpholin-4-yl]-6-(1-methylsulfonylcyclobutyl)pyrimi-din-2-yl]phenyl]thiourea]
1.74 nM | – | Cc1ccc(S(=O)(=O)C2(c3cc(N4CCOC[C@@H]4C)nc(-c4ccc(NC(=O)Nc5cnn(C)c5)cc4)n3)CCC2)cc1 [Example 68a]
31.6 nM | – | C[C@H]1COCCN1c1cc(C2(S(=O)(=O)CCCO)CCC2)nc(-c2ccc(NC(=S)NC3CC3)cc2)n1 [Example 99b, 3-cyclopropyl-1-[4-[4-[1-(3-hydroxypropylsulfonyl)cyclobutyl]-6-[(3S)-3-methylmorpholin-4-yl]pyrimidin-2-yl]phenyl]thiourea]
485 nM | – | CCNC(=O)Nc1ccc(-c2nc(N3CCOCC3C(N)=O)cc(C3(S(=O)(=O)c4ccccc4)CC3)n2)cc1 (stereo not shown) [Example 89, 4-[6-[1-(Benzenesulfonyl)cyclopropyl]-2-[4-(ethylcarbamoylamino)phenyl]pyrimidin-4-yl]morpholine-3-carboxamide]
56.7 nM | – | CCS(=O)(=O)C1(c2cc(N3CCOC[C@@H]3C)nc(-c3ccc(NC(=S)NCc4ncc[nH]4)cc3)n2)CCC1 [Example 88b, 1-[4-[4-(1-ethylsulfonylcyclobutyl)-6-[(3S)-3-methylmorpholin-4-yl]pyrimidin-2-yl]phenyl]-3-(1H-imidazol-2-ylmethyl)thiourea]

— patent US20090018134A1, “Compounds - 945” (AstraZeneca AB, priority 2007, published 2009)
